Data reported in ChEMBL document CHEMBL3297700, “Dose-dependent inhibition of BACE-1 by the monoterpenoid 2,3,4,4-tetramethyl-5-methylenecyclopent-2-enone in cellular and mouse models of Alzheimer's disease” (J Nat Prod, 2014).
“And” between values parts separate entries of the source, which are not always exact repeats. Equal values may be shown once.

Legend:
[1] = tested on: Mus musculus; assay: In vivo inhibition of BACE-1 in triple transgenic mouse model of Alzheimer's disease assessed as reduction in brain soluble amyloid beta-40 level administered intranasally qd for 4 days by ELISA; format: functional, organism-based
[2] = biological target: T1, Beta-secretase 1 (Homo sapiens, UniProt P56817); assay: Inhibition of recombinant BACE-1 (unknown origin) expressed in Escherichia coli measured for 5 to 30 mins by spectrofluorometric analysis; conditions: read-out: Ki(app)
[3] = tested on: Mus musculus; assay: In vivo inhibition of BACE-1 in triple transgenic mouse model of Alzheimer's disease assessed as reduction in brain insoluble amyloid beta-40 level administered intranasally qd for 4 days by ELISA; format: functional, organism-based
[4] = Cytotoxicity against human SH-SY5Y cells expressing wild-type APP assessed as cell viability at 600 uM by trypan blue dye exclusion assay relative to control; format: cell-based; conditions: read-out: Activity
[5] = tested on: Mus musculus; assay: Toxicity in triple transgenic mouse model of Alzheimer's disease administered intranasally qd for 4 days; format: organism-based; conditions: in vivo, inhaled_or_intranasal, 96 h
[6] = biological target: Cathepsin D (Homo sapiens, UniProt P07339); assay: Inhibition of cathepsin D in human liver using Lys-Lys-Pro-Ala-Glu-Phe-Phe-Ala-Leu-Lys as substrate by spectrofluorometric analysis; conditions: read-out: Ki(app)
[7] = biological target: Beta-secretase 1 (Cricetulus griseus, UniProt G3IAK4); assay: Inhibition of BACE-1 in CHO cells expressing wild-type APP assessed as reduction in amyloid beta-40 production after 6 hrs by sandwich ELISA
[8] = biological target: T1, Beta-secretase 1; assay: Inhibition of BACE-1 in human SH-SY5Y cells expressing wild-type APP assessed as reduction in amyloid beta-40 production after 16 hrs by sandwich ELISA
[9] = Cytotoxicity against CHO cells expressing wild-type APP assessed as cell viability at 600 uM by neutral red uptake assay relative to control; format: cell-based, Cricetulus griseus; conditions: chinese hamster, read-out: Activity

T1 sequence (P56817 whole entry): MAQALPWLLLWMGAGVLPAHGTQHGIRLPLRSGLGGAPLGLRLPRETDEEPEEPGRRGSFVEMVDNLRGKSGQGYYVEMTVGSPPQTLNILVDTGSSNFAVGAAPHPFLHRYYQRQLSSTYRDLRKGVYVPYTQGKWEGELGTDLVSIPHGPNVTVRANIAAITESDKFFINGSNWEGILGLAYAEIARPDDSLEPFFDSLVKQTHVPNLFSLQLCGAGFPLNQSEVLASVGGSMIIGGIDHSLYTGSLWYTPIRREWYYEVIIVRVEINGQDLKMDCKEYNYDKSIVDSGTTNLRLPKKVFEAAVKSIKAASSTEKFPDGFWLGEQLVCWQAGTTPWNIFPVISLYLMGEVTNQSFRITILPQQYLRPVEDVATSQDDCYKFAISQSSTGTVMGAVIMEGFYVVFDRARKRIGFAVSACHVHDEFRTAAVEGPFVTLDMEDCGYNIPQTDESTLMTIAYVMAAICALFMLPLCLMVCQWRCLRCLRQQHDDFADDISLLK
Chain of Cathepsin D (P07339 65-162 limits assumed): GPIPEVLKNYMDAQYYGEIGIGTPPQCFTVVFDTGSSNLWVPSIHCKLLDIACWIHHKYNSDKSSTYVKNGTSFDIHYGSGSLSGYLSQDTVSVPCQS
Chain of Cathepsin D (P07339 169-412 limits assumed): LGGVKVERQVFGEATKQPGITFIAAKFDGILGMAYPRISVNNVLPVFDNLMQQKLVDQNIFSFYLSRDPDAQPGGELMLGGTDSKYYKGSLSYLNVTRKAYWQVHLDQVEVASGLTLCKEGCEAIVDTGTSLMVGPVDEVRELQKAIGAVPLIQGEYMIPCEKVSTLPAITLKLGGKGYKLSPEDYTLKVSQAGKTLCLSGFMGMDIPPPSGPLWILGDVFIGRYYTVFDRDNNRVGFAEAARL
Chain of Beta-secretase 1 (Cricetulus griseus, UniProt G3IAK4) (G3IAK4 whole entry): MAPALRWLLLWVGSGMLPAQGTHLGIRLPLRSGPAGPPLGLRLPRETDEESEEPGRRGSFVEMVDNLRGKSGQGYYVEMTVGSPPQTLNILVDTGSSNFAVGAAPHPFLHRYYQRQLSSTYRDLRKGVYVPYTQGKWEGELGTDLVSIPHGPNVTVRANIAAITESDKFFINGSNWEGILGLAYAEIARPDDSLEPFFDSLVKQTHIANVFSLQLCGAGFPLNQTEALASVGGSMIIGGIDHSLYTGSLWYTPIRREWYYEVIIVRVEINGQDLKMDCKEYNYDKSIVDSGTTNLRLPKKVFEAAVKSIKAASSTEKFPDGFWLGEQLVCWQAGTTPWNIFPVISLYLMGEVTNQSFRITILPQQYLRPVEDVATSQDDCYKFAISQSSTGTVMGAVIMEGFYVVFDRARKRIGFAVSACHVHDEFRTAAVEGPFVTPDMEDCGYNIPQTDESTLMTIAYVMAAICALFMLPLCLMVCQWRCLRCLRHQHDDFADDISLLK

- Ki [2]: 416 µM
- Ki [6]: 31 µM and 30.8 µM
- EC50 [7]: 73 µM
- EC50 [8]: 217 µM
SMILES: C=C1C(=O)C(C)=C(C)C1(C)C
- inhibition [1]: Dose-dependent effect
- inhibition [3]: Dose-dependent effect
- viability at 600 µM [4]: > 90%
- Activity [5]: Non-toxic
- viability at 600 µM [9]: > 90%
